Experimental data: patent US12410152B2, “Oxazole and thioazole-type cullin ring ubiquitin ligase compounds and uses thereof” (Proxygen GmbH, priority 2019, dated 2025)

Molecular target: T1, CRL4B complex (CUL4B, DDB1) (Homo sapiens, UniProt Q13620+Q16531)
T1 construct: endogenous in cells; host or cells: KBM7 WT cells
Assay: Chemoproteomics with IC021313.2 photoaffinity probe, competitive setup
Assay type: binding
Settings: KBM7 WT; 100 μM competitor, 10 μM photoprobe
Excerpt: Another explanation would be (2) functional redundancy, where our identified small-molecules modulate more than one SR in an interchangeable manner (either directly or indirectly). Lastly (3), it could be that the tested molecules endow a neomorphic function of the CRL4B complex by binding to a non-SR component. In order to disentangle these hypotheses, and to test if the assayed molecules would directly bind to/physically engage the CRL4B complex, IC021313.2 was derivatized with a moiety consisting of a photoactive diazirine group and an alkyl handle (FIG. 7). The ensuing functionalized molecule was used to purify proteins physically binding to the compound (“interactors”). In order to gain increased confidence, a competitive setup was chosen where cells were initially treated with the parental, non-modified compound or vehicle control. Compound treatment (1h) at excess concentrations of 100 μM was expected to saturate binding sites. Subsequently, cells (both vehicle- and compound-treated) were treated with the functionalized probe for 1 h at 10 μM, followed by UV-crosslinking. Next, cells were lysed and a biotin-azide linker was attached via click chemistry, and interacting proteins (“interactors”) were purified via biotin enrichment over a Streptavidin column and subjected to unbiased detection via label-free proteomics analysis. […]

T1 sequence (Q13620 whole entry): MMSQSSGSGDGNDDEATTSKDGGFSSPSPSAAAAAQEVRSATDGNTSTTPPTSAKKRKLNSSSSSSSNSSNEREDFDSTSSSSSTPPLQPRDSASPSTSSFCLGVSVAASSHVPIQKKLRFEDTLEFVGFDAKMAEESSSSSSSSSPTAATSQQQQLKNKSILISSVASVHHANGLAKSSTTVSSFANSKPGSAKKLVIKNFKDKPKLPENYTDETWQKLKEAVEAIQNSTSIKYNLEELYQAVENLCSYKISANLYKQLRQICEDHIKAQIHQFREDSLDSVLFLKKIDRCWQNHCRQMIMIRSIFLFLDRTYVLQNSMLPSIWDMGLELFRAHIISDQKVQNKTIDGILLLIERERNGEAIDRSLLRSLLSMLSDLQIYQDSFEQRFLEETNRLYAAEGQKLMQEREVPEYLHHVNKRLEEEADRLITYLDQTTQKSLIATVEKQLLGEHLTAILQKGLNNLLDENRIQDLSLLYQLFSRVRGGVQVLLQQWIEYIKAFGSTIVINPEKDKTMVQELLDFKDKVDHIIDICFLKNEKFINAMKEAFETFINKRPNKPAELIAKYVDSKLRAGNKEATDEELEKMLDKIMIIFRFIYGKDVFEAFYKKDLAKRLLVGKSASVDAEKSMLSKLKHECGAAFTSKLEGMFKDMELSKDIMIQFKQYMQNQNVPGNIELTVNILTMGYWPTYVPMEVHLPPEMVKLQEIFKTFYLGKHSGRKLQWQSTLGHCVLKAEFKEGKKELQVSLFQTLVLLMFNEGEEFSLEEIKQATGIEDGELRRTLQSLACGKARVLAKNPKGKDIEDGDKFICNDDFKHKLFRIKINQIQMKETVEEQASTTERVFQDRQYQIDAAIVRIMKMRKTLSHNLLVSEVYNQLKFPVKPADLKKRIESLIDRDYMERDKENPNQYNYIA
T1 sequence (Q16531 2-1140 limits assumed): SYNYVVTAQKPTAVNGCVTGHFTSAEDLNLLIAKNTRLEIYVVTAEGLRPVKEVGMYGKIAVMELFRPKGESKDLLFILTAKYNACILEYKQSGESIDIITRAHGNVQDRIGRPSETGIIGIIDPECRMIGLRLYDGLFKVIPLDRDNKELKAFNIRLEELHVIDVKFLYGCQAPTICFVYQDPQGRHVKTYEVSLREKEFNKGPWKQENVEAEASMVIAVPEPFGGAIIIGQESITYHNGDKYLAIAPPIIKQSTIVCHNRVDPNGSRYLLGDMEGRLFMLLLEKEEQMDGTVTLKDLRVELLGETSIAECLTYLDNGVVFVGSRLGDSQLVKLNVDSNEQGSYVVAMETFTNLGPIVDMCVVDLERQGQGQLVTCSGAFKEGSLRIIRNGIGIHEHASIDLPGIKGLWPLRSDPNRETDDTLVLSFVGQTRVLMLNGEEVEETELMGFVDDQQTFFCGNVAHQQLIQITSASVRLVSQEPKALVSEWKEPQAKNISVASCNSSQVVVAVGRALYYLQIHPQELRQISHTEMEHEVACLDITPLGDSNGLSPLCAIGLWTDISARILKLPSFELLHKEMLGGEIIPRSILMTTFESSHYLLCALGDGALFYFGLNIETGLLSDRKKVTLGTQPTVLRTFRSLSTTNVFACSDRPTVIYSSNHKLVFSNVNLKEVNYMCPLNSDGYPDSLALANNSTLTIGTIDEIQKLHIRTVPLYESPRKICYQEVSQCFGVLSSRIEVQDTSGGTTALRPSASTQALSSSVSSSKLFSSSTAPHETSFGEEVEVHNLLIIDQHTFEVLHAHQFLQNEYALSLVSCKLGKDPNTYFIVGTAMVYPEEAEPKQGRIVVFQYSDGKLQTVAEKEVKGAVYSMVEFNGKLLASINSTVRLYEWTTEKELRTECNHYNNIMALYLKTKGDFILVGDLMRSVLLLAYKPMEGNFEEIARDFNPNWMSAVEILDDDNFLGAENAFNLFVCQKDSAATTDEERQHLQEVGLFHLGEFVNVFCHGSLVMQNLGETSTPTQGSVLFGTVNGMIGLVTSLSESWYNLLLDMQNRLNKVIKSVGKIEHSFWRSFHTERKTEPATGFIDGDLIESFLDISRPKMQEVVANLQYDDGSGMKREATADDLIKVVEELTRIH
T1 sequence (Q9NYV4 whole entry partner): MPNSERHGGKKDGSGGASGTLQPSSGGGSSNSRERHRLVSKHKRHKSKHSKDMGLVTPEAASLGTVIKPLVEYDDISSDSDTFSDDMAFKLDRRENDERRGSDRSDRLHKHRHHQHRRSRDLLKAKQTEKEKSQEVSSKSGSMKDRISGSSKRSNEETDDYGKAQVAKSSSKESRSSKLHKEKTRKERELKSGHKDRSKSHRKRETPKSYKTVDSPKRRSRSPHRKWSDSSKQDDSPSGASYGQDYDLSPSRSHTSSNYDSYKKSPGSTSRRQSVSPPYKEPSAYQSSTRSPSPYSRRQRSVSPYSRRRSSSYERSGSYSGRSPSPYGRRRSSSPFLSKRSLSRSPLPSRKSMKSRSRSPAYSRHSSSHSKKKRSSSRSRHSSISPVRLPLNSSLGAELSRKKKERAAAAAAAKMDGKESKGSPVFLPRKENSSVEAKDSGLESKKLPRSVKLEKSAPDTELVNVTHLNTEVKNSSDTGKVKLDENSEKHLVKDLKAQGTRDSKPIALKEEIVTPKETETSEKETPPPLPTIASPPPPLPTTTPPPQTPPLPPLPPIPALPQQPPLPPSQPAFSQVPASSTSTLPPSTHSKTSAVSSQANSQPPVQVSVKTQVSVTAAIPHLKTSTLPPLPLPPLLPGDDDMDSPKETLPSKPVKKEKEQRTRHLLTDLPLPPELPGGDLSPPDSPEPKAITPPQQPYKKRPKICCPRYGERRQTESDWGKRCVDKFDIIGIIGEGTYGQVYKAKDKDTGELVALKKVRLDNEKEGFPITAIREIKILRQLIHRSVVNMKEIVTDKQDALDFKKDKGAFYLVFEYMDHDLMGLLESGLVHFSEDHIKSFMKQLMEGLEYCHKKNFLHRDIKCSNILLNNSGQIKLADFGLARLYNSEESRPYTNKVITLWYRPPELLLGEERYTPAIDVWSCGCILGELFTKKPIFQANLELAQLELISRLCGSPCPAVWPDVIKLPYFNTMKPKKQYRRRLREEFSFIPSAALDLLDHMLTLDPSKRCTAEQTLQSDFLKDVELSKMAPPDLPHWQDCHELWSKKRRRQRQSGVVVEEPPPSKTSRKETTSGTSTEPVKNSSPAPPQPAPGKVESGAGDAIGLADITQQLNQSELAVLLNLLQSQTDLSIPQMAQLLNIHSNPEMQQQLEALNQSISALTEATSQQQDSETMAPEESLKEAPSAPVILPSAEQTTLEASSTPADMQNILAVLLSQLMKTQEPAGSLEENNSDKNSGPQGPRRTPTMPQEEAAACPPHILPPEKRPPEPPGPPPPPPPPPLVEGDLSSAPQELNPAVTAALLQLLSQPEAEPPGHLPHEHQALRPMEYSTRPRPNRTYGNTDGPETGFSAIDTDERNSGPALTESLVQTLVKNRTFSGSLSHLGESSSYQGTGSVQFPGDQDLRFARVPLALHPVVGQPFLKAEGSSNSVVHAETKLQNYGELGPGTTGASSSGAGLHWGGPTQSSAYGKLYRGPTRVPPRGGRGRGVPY
T1 sequence (O75909 whole entry partner): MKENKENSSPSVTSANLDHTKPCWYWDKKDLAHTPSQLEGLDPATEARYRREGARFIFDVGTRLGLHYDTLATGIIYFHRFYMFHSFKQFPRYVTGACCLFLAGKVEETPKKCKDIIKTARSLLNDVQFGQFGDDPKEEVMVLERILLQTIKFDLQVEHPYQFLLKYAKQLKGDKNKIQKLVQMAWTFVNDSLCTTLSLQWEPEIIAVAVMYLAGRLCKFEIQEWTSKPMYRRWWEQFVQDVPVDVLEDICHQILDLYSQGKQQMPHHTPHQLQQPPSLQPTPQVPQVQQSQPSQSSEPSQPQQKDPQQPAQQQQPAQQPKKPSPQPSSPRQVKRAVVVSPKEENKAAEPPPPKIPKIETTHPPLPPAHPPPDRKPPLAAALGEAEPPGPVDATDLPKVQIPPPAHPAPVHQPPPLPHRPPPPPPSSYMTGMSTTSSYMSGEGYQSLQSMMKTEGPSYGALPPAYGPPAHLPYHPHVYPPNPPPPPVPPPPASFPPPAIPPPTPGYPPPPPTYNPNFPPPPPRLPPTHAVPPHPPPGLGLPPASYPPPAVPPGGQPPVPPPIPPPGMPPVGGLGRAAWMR

Structure (SMILES): O=C(CSc1nc2ccccc2[nH]1)Nc1ccc(Cl)cn1 [IC021313.2]
- physical engagement of CRL4B complex (competitive photoprobe pulldown, MS): physically engages with a CRL4B complex
